{
  "source": "patent US20160095929A1",
  "about": "“PROMOTION OF WOUND HEALING” (Northwestern University, priority 2011, published 2016)",
  "key": {"GM3": {"system": "GM3", "assay": "GM3 expression in HEKs (flow cytometry / immunofluorescence with anti-GM3 antibody)", "format": "cell-based, human", "settings": "for GM3 expression (in words): GCS inhibitor, M154 medium and glucose-supplemented medium", "experimental": "A. HEKs were treated for 96 h with 0-100 pM TNF-α in complete […] medium and GM3S expression determined by qPCR. B. GM3 was quantified by flow cytometry with anti-GM3 antibody after 0-100 pM TNF-α for 96 h. C, D. HEKs were treated with 12 mM supplemental glucose (C) or in […] medium alone (D) for 72 h and GM3 was detected with anti-GM3 antibody by immunofluorescence. […] Changes in GM3 expression by immunofluorescence with anti-GM3 antibody show efficacy of siRNA- and DNA-Au NPs with 60-72 h incubation. […] C. […] A, B=routine immunofluorescence; C, D and inset of D=confocal microscopy. Bar=14 μm."}, "IR": {"system": "IR", "assay": "IR phosphorylation / signaling immunoblot in HEKs", "format": "cell-based, human", "settings": "HEKs 72-96 h; 100 pM EtDOP4, 100 pM TNF-α, GM3 50 μM; insulin 5 μg/ml", "experimental": "Cells were starved of growth factors overnight (with treatment continued), then treated for 5-60 mins (15 mins shown) with or without insulin 5 μg/ml. Cells lysates were immunoprecipitated with anti-IR polyclonal antibody and blotted with monoclonal anti-IR, PY-20, or as a loading control, actin. Membrane lysates were immunoprecipitated with IR and immunoblotted with anti-IR (top), PY-20 (second row), anti-IRS-1 (3rd row in B), or to control for loading, actin (bottom). […] Expression of IR was not affected."}, "mouse KCs [1]": {"system": "mouse KCs", "assay": "Mouse KC in vitro wound (scratch) migration assay", "format": "cell-based", "settings": "WT primary mouse KCs", "experimental": "(§1) FIGS. 13A-C show ganglioside depletion reverses glucose-induced inhibition of proliferation and in vitro wound healing. (A) Mouse KCs were cultured in standard medium (8 mM glucose) or medium supplemented with 12 mM glucose treated for 72 h, and then plated at confluence onto collagen I-coated 24-well plates in the presence of mitomycin C to prevent proliferation. Two hours after plating, a scratch was made and migration was monitored photographically during the subsequent 60 h in the continued presence or absence of glucose. (B) Quantification of wound healing shown in (A) by computerized measurements of the unfilled gap. (C) Proliferation of mouse KCs was measured by WST assay in standard or glucose-supplemented medium. In vitro proliferation, migration and motility assays. […] For proliferation assays, KCs were plated onto 96-well (2×10^3 cell/well) or 12-well (2×10^4 cell/well) plates and cell proliferation was assessed daily for 5 d by either WST assay (96-well plate) per manufacturer's instruction (Clontech, Calif.) and manual counting using a hemacytometer (12-well plate). Cell migration was assessed by in vitro wound (scratch) assays as previously described (47). […] Cell migration in complete CnT-07 medium in the presence of 4 μg/mL mitomycin was recorded photographically every 3-4 h for 60 h under an inverted phase-contrast microscope (Nikon). […]"}, "mouse KCs [2]": {"system": "mouse KCs", "assay": "Mouse KC proliferation (WST assay)", "format": "cell-based", "settings": "WT primary mouse KCs", "experimental": "as §1"}, "[3]": {"settings": "phase II trials for Gaucher disease; cited from earlier work"}, "HEKs [4]": {"system": "HEKs", "assay": "HEK single live cell imaging (Biostation)", "format": "cell-based, human", "settings": "Glu-treated HEKs", "experimental": "(§2) A. HEKs were treated as described in FIG. 7 for mouse KCs and proliferation was measured. […] B. HEKs were treated and scratch assays performed as in FIG. 7. […] C. HEKs were treated with Glu and/or C9, but starved during the last 18 h. Cells were plated on the top of Col I-coated Boyden inserts in supplement-free medium, while the lower level was filled with the same medium with and without insulin (5 μg/ml) or IGF-1 (100 ng/ml) (Haase et al. J Cell Sci 2003; 116:3227-38.; herein incorporated by reference in its entirety). After 18 h, HEKs on the bottom surface were stained and counted. […] D-G. After their incubation in Glu and/or C9, HEKs were plated onto Col I-coated glass dishes and, 2 h later, single cells were imaged every 2 mins over a 2 h period using a Biostation phase contrast microscope (Nikon). […] Vector maps constructed with 10 representative tracks (G) further show reversal of the impact of Glu with C9 alone (which was approximately the same as with growth factors)."}, "HEKs [5]": {"system": "HEKs", "assay": "HEK scratch migration assay", "format": "cell-based, human", "settings": "mitomycin C, with or without glucose", "experimental": "(§3) A. KO and WT mouse KCs, grown in CNT07 medium, were treated with and without 12 mM glucose (Glu) for 72 h, and then plated into 96-well plates. Proliferation was measured by WST assay (Clontech) in the continued presence or absence of Glu. B. Mouse KCs were treated as above, then plated at confluence into Col I-coated 24-well plates in the presence of mitomycin C. Two hours after plating, a scratch was made and migration monitored. Migration was decreased by Glu, but was faster in the KO cells treated with Glu than with vehicle. […] A. HEKs were treated as described in FIG. 7 for mouse KCs and proliferation was measured. […] B. HEKs were treated and scratch assays performed as in FIG. 7. […] C. HEKs were treated with Glu and/or C9, but starved during the last 18 h. Cells were plated on the top of Col I-coated Boyden inserts in supplement-free medium, while the lower level was filled with the same medium with and without insulin (5 μg/ml) or IGF-1 (100 ng/ml) (Haase et al. J Cell Sci 2003; 116:3227-38.; herein incorporated by reference in its entirety). After 18 h, HEKs on the bottom surface were stained and counted. […] D-G. After their incubation in Glu and/or C9, HEKs were plated onto Col I-coated glass dishes and, 2 h later, single cells were imaged every 2 mins over a 2 h period using a Biostation phase contrast microscope (Nikon). […]"}, "HEKs [6]": {"system": "HEKs", "assay": "HEK proliferation (WST assay)", "format": "cell-based, human", "settings": "with or without 12 mM glucose, up to 5 days", "experimental": "as §3"}, "HEKs [7]": {"system": "HEKs", "assay": "HEK chemotaxis, Col I-coated Boyden inserts", "format": "cell-based, human", "settings": "supplemental Glu, 18 h, with or without insulin 5 μg/ml or IGF-1 100 ng/ml", "experimental": "as §2"}, "GCS": {"biological_target": "T1, GCS (Homo sapiens, UniProt Q16739)", "T1 sequence (Q16739 1-394)": "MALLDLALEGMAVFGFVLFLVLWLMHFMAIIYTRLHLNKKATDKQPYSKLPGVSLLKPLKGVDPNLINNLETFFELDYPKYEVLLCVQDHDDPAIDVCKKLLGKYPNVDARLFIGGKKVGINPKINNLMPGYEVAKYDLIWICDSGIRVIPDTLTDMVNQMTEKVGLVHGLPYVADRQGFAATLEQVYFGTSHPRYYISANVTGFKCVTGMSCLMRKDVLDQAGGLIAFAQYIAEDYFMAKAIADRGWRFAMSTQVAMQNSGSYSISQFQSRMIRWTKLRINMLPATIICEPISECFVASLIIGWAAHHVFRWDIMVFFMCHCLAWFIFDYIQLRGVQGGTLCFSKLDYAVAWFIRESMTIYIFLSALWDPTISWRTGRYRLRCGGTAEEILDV", "settings": "cited from earlier work"}, "[8]": {"settings": "in animals, relative to P4; cited from earlier work"}, "ceramides": {"system": "ceramides", "assay": "Ceramide detection with anti-C2 Cer antibody (TLC immunostaining, ELISA) in HEKs", "format": "cell-based, human", "settings": "TLC immunostaining and ELISA"}, "p-cofilin": {"system": "p-cofilin", "assay": "p-cofilin immunoblotting in HEKs", "format": "cell-based, human", "settings": "HEKs treated 72 h, immunoblot", "experimental": "HEKs were treated for 72 h with or without Glu, C9, Glu+C9 (A), or with sense DNA-Au NPs or the hybrid GM2/GD2S and GD3S antisense-Au NPs (B). Immunoblotting of cell lysates detected p-cofilin8 ([…]), cofilin and, as a loading control, GAPDH."}, "IGF-1R": {"system": "IGF-1R", "assay": "IGF-1R phosphorylation immunoblot in HEKs", "format": "cell-based, human", "settings": "HEKs 72 h, with or without Glu; IGF-1 100 ng/ml or insulin 5 μg/ml"}, "globotriaosylceramide": {"system": "globotriaosylceramide", "settings": "patients with Fabry disease; cited from earlier work"}, "α5 integrin": {"system": "α5 integrin", "settings": "on fibronectin (FN); cited from earlier work"}},
  "note": "“Also recorded” adds a separate entry of the source.",
  "data": [
    {"compound": "TNF-α", "values": [
      {"measurement": "increase in membrane-based GM3 expression", "setting": "GM3; 0-100 pM TNF-α for 96 h, flow cytometry", "value": 10, "unit": "fold"},
      {"measurement": "IR signaling / IR phosphorylation (in words)", "setting": "IR", "value": "suppresses IR signaling"}
    ]},
    {"compound": "lactosylceramide [LacCer]", "values": [
      {"measurement": "migration (in words)", "setting": "mouse KCs [1]", "value": "slightly decreased"},
      {"measurement": "proliferation (in words)", "setting": "mouse KCs [2]", "value": "slightly decreased"}
    ]},
    {"compound": "eliglustat tartrate", "values": [
      {"measurement": "toxicity", "setting": "[3]", "value": "showed little toxicity"}
    ]},
    {"compound": "CCCCCCCCC(=O)N[C@H](CN1CCCC1)[C@H](O)c1ccc2c(c1)OCCO2.O=C(O)C(O)C(O)C(=O)O", "note": "[C9]", "values": [
      {"measurement": "net displacement (reflecting persistence)", "setting": "HEKs [4]; at 2 h", "value": "significantly increased"},
      {"measurement": "total distance (reflecting velocity)", "setting": "HEKs [4]; at 2 h", "value": "significantly increased"},
      {"measurement": "cell polarity (in words)", "setting": "HEKs [4]; imaged over 2 h", "value": "increased cell polarity"},
      {"measurement": "migration (in words)", "setting": "HEKs [5]", "value": "even faster in the HEKs treated with C9+Glu than in vehicle-treated HEKs; also recorded: increases"},
      {"measurement": "proliferation (in words)", "setting": "HEKs [6]", "value": "greatest in cells treated with Glu and C9; also recorded: increases"},
      {"measurement": "reduction in GM3 expression", "setting": "GM3; 1 μM C9 for 72 h, flow cytometry", "value": 93, "unit": "%"},
      {"measurement": "GM3 expression (in words)", "setting": "GM3", "value": "prevents GM3 expression; also recorded: deplete GM3"},
      {"measurement": "chemotaxis (in words)", "setting": "HEKs [7]", "value": "increased chemotaxis of HEKs exposed to supplemental Glu"},
      {"measurement": "potency at inhibiting GCS relative to P4", "setting": "GCS", "value": "somewhat less potent"},
      {"measurement": "metabolic and tolerability profile", "setting": "[8]", "value": "better metabolic and tolerability profile"},
      {"measurement": "ceramide level (in words)", "setting": "ceramides", "value": "does not increase ceramides; also recorded: neither C9 nor EtDOP4 increase ceramide"},
      {"measurement": "phosphorylation of cofilin (in words)", "setting": "p-cofilin", "value": "decrease p-cofilin"},
      {"measurement": "IGF-1R phosphorylation (in words)", "setting": "IGF-1R", "value": "phosphorylates IGF-1R, including in the presence of supplemental glucose; also recorded: reverses the glucose-induced suppression of IGF-1R activation"}
    ]},
    {"compound": "insulin: growth factor, 5 μg/ml", "values": [
      {"measurement": "phosphorylation of cofilin (in words)", "setting": "p-cofilin", "value": "decrease p-cofilin"}
    ]},
    {"compound": "CCCCCCCCCCCCCCCC(=O)N[C@H](CN1CCCC1)[C@H](O)c1ccc2c(c1)OCCO2", "note": "[EtDOP4, D-threo-EtDO-P4]", "values": [
      {"measurement": "migration (in words)", "setting": "HEKs [5]", "value": "increases"},
      {"measurement": "accumulation of globotriaosylceramide", "setting": "globotriaosylceramide", "value": "decrease the accumulation of globotriaosylceramide"},
      {"measurement": "proliferation (in words)", "setting": "HEKs [6]", "value": "increases"},
      {"measurement": "GM3 expression (in words)", "setting": "GM3", "value": "deplete GM3"},
      {"measurement": "IR signaling / IR phosphorylation (in words)", "setting": "IR", "value": "rescues the suppression of TNF-α of IR phosphorylation"},
      {"measurement": "ceramide level (in words)", "setting": "ceramides", "value": "neither C9 nor EtDOP4 increase ceramide"}
    ]},
    {"compound": "GT1b", "values": [
      {"measurement": "KC migration", "setting": "α5 integrin", "value": "inhibit KC migration specifically on fibronectin (FN)"}
    ]},
    {"compound": "IGF-1: insulin-like growth factor 1", "values": [
      {"measurement": "phosphorylation of cofilin (in words)", "setting": "p-cofilin", "value": "decrease p-cofilin"}
    ]}
  ]
}
